Reference: the supplement of paper PMC10307832

Columns and labels:
Assay in all cases: relative viability (nuclei count vs DMSO), 5 days (fraction); higher = more cells survive
[1] = system: NCI-H2347
In short: (§1)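 Each reported value is a median over duplicate plates. It expresses relative viability: treated-well nuclei count divided by vehicle-well nuclei count. Lung cancer cell lines in 1536-well plates were dosed by pin tool a day after seeding, alone with one drug or with a fixed anchor-drug dose plus five library-drug doses (not always all listed) in √10 steps, and nuclei were counted after 5 days.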

[2] = system: EPLC-272H
In short: as §1

[3] = system: H3255
In short: as §1

[4] = system: NCI-H661
In short: as §1

[5] = system: 201T
In short: as §1

[6] = system: COR-L 105
In short: as §1

[7] = system: NCI-H2087
In short: as §1

[8] = system: NCI-H2126
In short: as §1

[9] = system: NCI-H2405
In short: as §1

[10] = system: HCC-78
In short: as §1

[11] = system: LC-2-ad
In short: as §1

[12] = system: NCI-H1666
In short: as §1

[13] = system: LCLC-97TM1
In short: as §1

[14] = system: NCI-H23
In short: as §1

[15] = system: NCI-H520
In short: as §1

[16] = system: HCC-827
In short: as §1

[17] = system: NCI-H1915
In short: as §1

[18] = system: NCI-H647
In short: as §1

[19] = system: PC-14
In short: as §1

[20] = system: RERF-LC-KJ
In short: as §1

[21] = system: NCI-H650
In short: as §1

O=c1cc(N2CCOCC2)oc2c(-c3cccc4c3sc3ccccc34)cccc12 + C[C@]1(O)C[C@@H](c2nc(-c3ccc4ccc(-c5ccccc5)nc4c3)c3c(N)nccn32)C1 [Linsitinib] (partner 1 µM)
relative viability ([1]; first compound 0.01 µM): 1.02
relative viability ([1]; first compound 0.03162 µM): 0.943
relative viability ([1]; first compound 0.1 µM): 0.962
relative viability ([1]; first compound 0.3162 µM): 0.926
relative viability ([1]; first compound 1 µM): 0.945
relative viability ([2]; first compound 0.01 µM): 0.987
relative viability ([2]; first compound 0.03162 µM): 1.17
relative viability ([2]; first compound 0.3162 µM): 1.31
relative viability ([2]; first compound 1 µM): 1.1
relative viability ([3]; first compound 0.01 µM): 1
relative viability ([3]; first compound 0.03162 µM): 0.988
relative viability ([3]; first compound 0.1 µM): 1.14
relative viability ([3]; first compound 0.3162 µM): 0.95
relative viability ([3]; first compound 1 µM): 1.09
relative viability ([4]; first compound 0.01 µM): 0.652
relative viability ([4]; first compound 0.03162 µM): 0.579
relative viability ([4]; first compound 0.1 µM): 0.571
relative viability ([4]; first compound 0.3162 µM): 0.649
relative viability ([4]; first compound 1 µM): 0.614
relative viability ([5]; first compound 0.01 µM): 1.04
relative viability ([5]; first compound 0.03162 µM): 1.03
relative viability ([5]; first compound 0.1 µM): 1.03
relative viability ([5]; first compound 0.3162 µM): 1.01
relative viability ([5]; first compound 1 µM): 1.05
relative viability ([6]; first compound 0.01 µM): 0.858
relative viability ([6]; first compound 0.03162 µM): 0.792
relative viability ([6]; first compound 0.1 µM): 0.851
relative viability ([6]; first compound 0.3162 µM): 0.773
relative viability ([6]; first compound 1 µM): 0.895
relative viability ([7]; first compound 0.01 µM): 1.04
relative viability ([7]; first compound 0.03162 µM): 1.12
relative viability ([7]; first compound 0.1 µM): 0.899
relative viability ([7]; first compound 0.3162 µM): 0.899
relative viability ([7]; first compound 1 µM): 0.985
relative viability ([8]; first compound 0.01 µM): 0.698
relative viability ([8]; first compound 0.03162 µM): 0.664
relative viability ([8]; first compound 0.1 µM): 0.691
relative viability ([8]; first compound 0.3162 µM): 0.702
relative viability ([8]; first compound 1 µM): 0.725
relative viability ([9]; first compound 0.01 µM): 0.972
relative viability ([9]; first compound 0.03162 µM): 1.01
relative viability ([9]; first compound 0.1 µM): 1.01
relative viability ([9]; first compound 0.3162 µM): 0.924
relative viability ([9]; first compound 1 µM): 0.955
relative viability ([10]; first compound 0.01 µM): 0.542
relative viability ([10]; first compound 0.03162 µM): 0.525
relative viability ([10]; first compound 0.1 µM): 0.559
relative viability ([10]; first compound 0.3162 µM): 0.51
relative viability ([10]; first compound 1 µM): 0.53
relative viability ([11]; first compound 0.01 µM): 0.975
relative viability ([11]; first compound 0.1 µM): 0.801
relative viability ([11]; first compound 0.3162 µM): 0.714
relative viability ([11]; first compound 1 µM): 0.781
relative viability ([12]; first compound 0.01 µM): 0.735
relative viability ([12]; first compound 0.03162 µM): 0.803
relative viability ([12]; first compound 0.1 µM): 0.972
relative viability ([12]; first compound 0.3162 µM): 0.776
relative viability ([12]; first compound 1 µM): 0.636
relative viability ([13]; first compound 0.01 µM): 0.217
relative viability ([13]; first compound 0.03162 µM): 0.203
relative viability ([13]; first compound 0.3162 µM): 0.198
relative viability ([13]; first compound 1 µM): 0.18
relative viability ([14]; first compound 0.01 µM): 0.623
relative viability ([14]; first compound 0.03162 µM): 0.641
relative viability ([14]; first compound 0.3162 µM): 0.663
relative viability ([14]; first compound 1 µM): 0.476
relative viability ([15]; first compound 0.01 µM): 1.02
relative viability ([15]; first compound 0.03162 µM): 1.01
relative viability ([15]; first compound 0.1 µM): 1.22
relative viability ([15]; first compound 0.3162 µM): 0.923
relative viability ([15]; first compound 1 µM): 0.876
relative viability ([16]; first compound 0.01 µM): 0.906
relative viability ([16]; first compound 0.03162 µM): 0.977
relative viability ([16]; first compound 0.1 µM): 0.941
relative viability ([16]; first compound 0.3162 µM): 0.941
relative viability ([16]; first compound 1 µM): 0.891
relative viability ([17]; first compound 0.01 µM): 1.04
relative viability ([17]; first compound 0.03162 µM): 1.15
relative viability ([17]; first compound 0.1 µM): 0.636
relative viability ([17]; first compound 0.3162 µM): 1.1
relative viability ([17]; first compound 1 µM): 1.08
relative viability ([18]; first compound 0.01 µM): 1.02
relative viability ([18]; first compound 0.03162 µM): 1.24
relative viability ([18]; first compound 0.1 µM): 1.22
relative viability ([18]; first compound 0.3162 µM): 1.09
relative viability ([18]; first compound 1 µM): 0.954
relative viability ([19]; first compound 0.01 µM): 0.998
relative viability ([19]; first compound 0.03162 µM): 0.934
relative viability ([19]; first compound 0.1 µM): 0.952
relative viability ([19]; first compound 0.3162 µM): 0.952
relative viability ([19]; first compound 1 µM): 0.848
relative viability ([20]; first compound 0.01 µM): 0.908
relative viability ([20]; first compound 0.03162 µM): 0.937
relative viability ([20]; first compound 0.1 µM): 0.914
relative viability ([20]; first compound 0.3162 µM): 0.869
relative viability ([20]; first compound 1 µM): 0.874
relative viability ([21]; first compound 0.01 µM): 0.794
relative viability ([21]; first compound 0.03162 µM): 1.03
relative viability ([21]; first compound 0.3162 µM): 1.14
relative viability ([21]; first compound 1 µM): 0.679
